This passage reports IC50 and α4β1/α4β7 results from patent EP4585587A1, “PROPIONIC ACID DERIVATIVE AND USE THEREOF IN MEDICINE” (priority 2022, dated 2024).

One assay concerns the target T1, integrin α4β7 (Homo sapiens, UniProt P13612+P26010).
T1 sequence (P13612 34-1032): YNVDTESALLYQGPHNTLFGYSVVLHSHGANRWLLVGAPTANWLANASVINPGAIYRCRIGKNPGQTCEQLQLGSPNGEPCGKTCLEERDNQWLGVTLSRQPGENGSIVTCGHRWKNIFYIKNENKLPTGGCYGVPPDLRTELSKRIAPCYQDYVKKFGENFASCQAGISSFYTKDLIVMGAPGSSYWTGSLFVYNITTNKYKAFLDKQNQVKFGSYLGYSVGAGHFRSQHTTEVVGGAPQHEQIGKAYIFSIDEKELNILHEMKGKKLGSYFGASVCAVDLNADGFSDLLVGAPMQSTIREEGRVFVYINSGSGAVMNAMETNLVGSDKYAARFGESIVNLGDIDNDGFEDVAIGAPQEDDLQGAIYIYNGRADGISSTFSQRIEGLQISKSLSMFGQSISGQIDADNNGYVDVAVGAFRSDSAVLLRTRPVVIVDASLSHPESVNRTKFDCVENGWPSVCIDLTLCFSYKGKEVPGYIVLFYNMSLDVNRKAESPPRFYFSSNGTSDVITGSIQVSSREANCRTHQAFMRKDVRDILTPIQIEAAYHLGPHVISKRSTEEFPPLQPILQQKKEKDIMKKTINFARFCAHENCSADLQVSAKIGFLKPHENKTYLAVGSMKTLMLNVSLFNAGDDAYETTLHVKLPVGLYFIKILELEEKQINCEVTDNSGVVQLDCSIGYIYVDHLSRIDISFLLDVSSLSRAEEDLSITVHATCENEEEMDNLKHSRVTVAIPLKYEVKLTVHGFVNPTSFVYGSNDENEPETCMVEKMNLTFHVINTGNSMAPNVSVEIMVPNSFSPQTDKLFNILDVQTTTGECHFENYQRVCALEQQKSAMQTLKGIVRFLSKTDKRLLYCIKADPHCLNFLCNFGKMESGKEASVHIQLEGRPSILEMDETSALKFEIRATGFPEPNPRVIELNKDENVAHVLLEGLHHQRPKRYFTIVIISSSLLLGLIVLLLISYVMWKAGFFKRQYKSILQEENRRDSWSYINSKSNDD
T1 sequence (P26010 20-798): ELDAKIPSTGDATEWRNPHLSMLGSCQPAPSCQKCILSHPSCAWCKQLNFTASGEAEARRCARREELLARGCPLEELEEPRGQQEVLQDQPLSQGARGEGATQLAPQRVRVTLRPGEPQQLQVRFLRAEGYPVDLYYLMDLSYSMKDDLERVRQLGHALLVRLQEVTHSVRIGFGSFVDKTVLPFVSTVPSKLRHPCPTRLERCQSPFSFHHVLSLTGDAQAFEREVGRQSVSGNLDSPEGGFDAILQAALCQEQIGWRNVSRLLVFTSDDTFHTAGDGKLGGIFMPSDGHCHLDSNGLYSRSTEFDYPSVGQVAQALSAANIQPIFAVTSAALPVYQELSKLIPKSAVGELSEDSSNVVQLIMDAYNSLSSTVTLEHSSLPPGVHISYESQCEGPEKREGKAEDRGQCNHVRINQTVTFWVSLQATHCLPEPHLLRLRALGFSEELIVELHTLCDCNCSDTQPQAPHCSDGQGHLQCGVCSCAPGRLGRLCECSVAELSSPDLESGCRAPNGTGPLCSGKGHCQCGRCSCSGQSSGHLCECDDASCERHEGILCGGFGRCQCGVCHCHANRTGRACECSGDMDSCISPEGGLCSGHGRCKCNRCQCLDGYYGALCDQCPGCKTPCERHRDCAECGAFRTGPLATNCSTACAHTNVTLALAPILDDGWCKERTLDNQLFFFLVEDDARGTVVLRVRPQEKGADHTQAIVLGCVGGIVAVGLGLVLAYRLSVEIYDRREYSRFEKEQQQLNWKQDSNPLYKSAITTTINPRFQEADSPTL
Nature of the assay: Integrin α4β7 cell adhesion assay (RPMI8866 cells on MAdCAM-1). The assay is classed as cell-based. As for the experimental part:
MAdCAM-1 was formulated with TBS buffer to a final concentration of 2 µg/ml, 50 µl of the solution was transferred to a 96-well plate, and the plate was coated with same at 4°C overnight. The plate was washed with TBS buffer three times, then 150 µl of a blocking solution (TBS buffer containing 1% BSA) was added, and the plate was blocked at 37°C for 1 h. […] 50 µl of the cell suspension was transferred to a 96-well plate so that the cell density reached 2×10^5 cells/well. Then 1 µl of the compound at different concentrations or DMSO was added and the plate was incubated at 37°C for 1 h or 2 h. The plate was washed with TBS buffer to remove non-adherent cells. 50 µl of a substrate (4-nitrophenyl-N-acetyl-β-D-glucosaminide) was added and the plate was incubated at 37°C for 2 h. […] The IC50 value was calculated using GraphPad Prism 6 software.

In the next assay the test system is integrin α4β1. Nature of the assay: Integrin α4β1-mediated cell adhesion assay (Jurkat cells on VCAM). The assay is classed as cell-based. As for the experimental part:
VCAM was formulated into a final concentration of 0.5 µg/ml with a coating buffer, 50 µl of the solution was transferred to a 96-well plate, and the plate was coated with same at 4°C overnight. The plate was washed with coating buffer three times, then 150 µl of a blocking solution (coating buffer containing 1% BSA) was added, and the plate was blocked at 37°C for 1 h. Jurkat cells were collected, washed twice using DPBS buffer, and then resuspended to 4 × 10^6 cells/ml with an action buffer. 50 µl of the cell suspension was transferred to a 96-well plate so that the cell density reached 2 × 10^5 cells/well. Then 1 µl of the test compound at different concentration or DMSO was added and the plate was incubated at 37°C for 1 h. The plate was washed with coating buffer to remove non-adherent cells. 50 µl of a substrate (4-nitrophenyl-N-acetyl-β-D-glucosaminide) was added and the plate was incubated at 37°C for 2 h. Finally, 90 µl of a termination solution (50 mM glycine and 5 mM EDTA, pH 10.4) was added. The OD value of the plate was read at 405 nm. • Coating buffer: DMEM+ 20 mM HEPES+ 0.4 mM MnCl2 • Action buffer: DMEM+ 20 mM HEPES+ 0.1% BSA+0.4 mM MnCl2 • DMEM: dulbecco's modified eagle medium; • HEPES: 2-[4-(2-hydroxyethyl)piperazin-1-yl]ethanesulfonic acid Table 1 Results of effects of compounds on α4β7- and α4β1-mediated cell adhesion

The mark [1] stands for this setting: RPMI8866 cells, MAdCAM-1 coated plate, reported as class symbol, read-out: RPMI-8866 (α4β7)/MadCAM-1 IC50.
Where [2] appears, read: selectivity ratio of Jurkat (α4β1)/VCAM-1 IC50 to RPMI-8866 (α4β7)/MadCAM-1 IC50.
The mark [3] stands for this setting: Jurkat cells, VCAM coated plate; read-out: Jurkat (α4β1)/VCAM-1 IC50.

Where a name gives a salt, the structure may show the parent alone. Read-outs that look alike come from different tables or passages of the source. A value given as a limit tells only on which side of the number the result lay.

Turning to `Cc1cc(F)cc(C)c1-c1cc(C(CC(=O)O)NC(=O)C(CC(C)C)n2cc(CCN(C)CC3CC3(F)F)c(C(F)(F)F)cc2=O)cc2c1CCC2` (single isomer, unassigned) [Compound 1-2], the IC50 on integrin α4β7 (setting [1]) was under 0.01 µM. Further, in the assay on integrin α4β1 (setting [2]), the α4β1/α4β7 is on record as over 50.
Take `C#CC1CN(CCc2cn(C(CC(C)C)C(=O)NC(CC(=O)O)c3cc4c(c(-c5c(C)cc(F)cc5C)c3)CCC4)c(=O)cc2C(F)(F)F)C1` (single isomer, unassigned) [Compound 3-2]: the IC50 on integrin α4β7 (setting [1]) is under 0.01 µM.
For the compound `CC#Cc1cc(-c2c(C)cccc2C)c(F)c(C(CC(=O)O)NC(=O)[C@H](CC(C)C)n2cc(CCN3CCC4(CC4)C3)c(C(F)(F)F)cc2=O)c1F` (single isomer, unassigned) [Compound 6-2], the IC50 on integrin α4β7 (setting [1]) is under 0.01 µM.
In the case of `CC#Cc1cc(-c2c(C)cccc2C)c(F)c(C(CC(=O)O)NC(=O)C(CC(C)C)n2cc(CCN(C)CC3CC3(F)F)c(C(F)(F)F)cc2=O)c1F` (single isomer, unassigned) [Compound 7-2], the IC50 at integrin α4β7 (setting [1]) was under 0.01 µM; in the assay with integrin α4β1 (setting [3]), over 0.5 µM. In addition, the α4β1/α4β7 in the assay with integrin α4β1 (setting [2]) came to 182.
On to `Cc1cc(F)cc(C)c1-c1c(F)c(C(CC(=O)O)NC(=O)[C@H](CC(C)C)n2cc(CC3CCN(C4CC4)CC3)c(C(F)(F)F)cc2=O)c(F)c2c1CCC2` (single isomer, unassigned) [Compound 24-2], for which the IC50 at integrin α4β7 (setting [1]) was under 0.01 µM.
For `COc1cc(C)c(-c2c(F)c(C(CC(=O)O)NC(=O)C(CC(C)C)n3cc(CCN(C)C)c(C(F)(F)F)cc3=O)c(F)c3c2CCC3)c(C)c1` (single isomer, unassigned) [Compound 39-2], the IC50 against integrin α4β7 is under 0.01 µM; in the assay with integrin α4β1 (read-out: Jurkat (α4β1)/VCAM-1 IC50; Jurkat cells, VCAM coated plate) it was over 0.5 µM. Further, the α4β1/α4β7 in the assay on integrin α4β1 (setting [2]) was 213.
In the case of `COc1ccc(C)c(-c2c(F)c(C(CC(=O)O)NC(=O)[C@H](CC(C)C)n3cc(CCN(C)C)c(C(F)(F)F)cc3=O)c(F)c3c2CCC3)c1C` (single isomer, unassigned) [Compound 50-2], the IC50 on integrin α4β7 (setting [1]) is under 0.01 µM.
`CC#Cc1cc(-c2c(C)cccc2C)c(F)c(C(CC(=O)O)NC(=O)C(CC(C)C)n2cc(CC3CN(C(C)C)C3)c(C(F)(F)F)cc2=O)c1F` (single isomer, unassigned) [Trifluoroacetate salt of compound 18-2]: the IC50 at integrin α4β7 (setting [1]) is under 0.01 µM; in the assay with integrin α4β1 (setting [3]) it was over 0.5 µM. Also, the α4β1/α4β7 in the assay with integrin α4β1 (setting [2]) is given as 258.
The corresponding values for `CC#Cc1cc(-c2c(C)cccc2C)c(F)c(C(CC(=O)O)NC(=O)C(CC(C)C)n2cc(CC3CN(CC4CC4)C3)c(C(F)(F)F)cc2=O)c1F` (single isomer, unassigned) [Trifluoroacetate salt of compound 19-2] are under 0.01 µM, over 0.5 µM and 323.
Regarding `Cc1cccc(C)c1-c1c(F)c(C(CC(=O)O)NC(=O)C(CC(C)C)n2cc(CCN(C)C)c(C(F)(F)F)cc2=O)c(F)c2c1CCC2` (single isomer, unassigned) [Trifluoroacetate salt of compound 20-2], the IC50 was under 0.01 µM on integrin α4β7 (setting [1]) and over 0.5 µM in the assay with integrin α4β1 (setting [3]). Also, in the assay on integrin α4β1 (setting [2]), the α4β1/α4β7 turned out to be 648.
Taken in the same sequence, the figures for `CC#Cc1cc(-c2c(C)cccc2C)c(F)c(C(CC(=O)O)NC(=O)C(CC(C)C)n2cc(CC3CCN(C(C)C)CC3)c(C(F)(F)F)cc2=O)c1F` (single isomer, unassigned) [Trifluoroacetate salt of compound 23-2] were under 0.01 µM, over 0.5 µM and 310.
Taken in the same sequence, the figures for `CC#Cc1cc(-c2c(C)cccc2C)c(F)c(C(CC(=O)O)NC(=O)C(CC(C)C)n2cc(CCC3CCN(C)C3)c(C(F)(F)F)cc2=O)c1F` (single isomer, unassigned) [Trifluoroacetate salt of compound 27-2] were under 0.01 µM, over 0.1 µM and 133.
Turning to `Cc1ccc(F)c(C)c1-c1c(F)c(C(CC(=O)O)NC(=O)[C@H](CC(C)C)n2cc(CCN(C)C)c(C(F)(F)F)cc2=O)c(F)c2c1CCC2` (stereo partly shown) [Trifluoroacetate salt of compound 48-2], the IC50 on integrin α4β7 (RPMI8866 cells, MAdCAM-1 coated plate, numeric value or bound, read-out: RPMI-8866 (α4β7)/MadCAM-1 IC50) is under 0.001 µM.
